Reference: PubChem BioAssay AID504934 (The Scripps Research Institute Molecular Screening Center, 2011)
Active and inactive are the calls of the source. How the calls were made is not given here.

Assays:
Test in all cases: PubChem AID 504934
AR = conditions: nuclear receptor panel Gal4 luciferase reporter, at 10 µM
[1] = biological target: COUP transcription factor 2 (Homo sapiens) (UniProt P24468); conditions: nuclear receptor panel Gal4 luciferase reporter, Coup-TF2, at 10 µM
[2] = biological target: Nuclear receptor subfamily 1 group I member 2 (Homo sapiens) (UniProt O75469); conditions: nuclear receptor panel Gal4 luciferase reporter, PXR, at 10 µM
Sequence of Nuclear receptor subfamily 1 group I member 2 (Homo sapiens) (O75469 whole entry, looked up, the tested form may be a part): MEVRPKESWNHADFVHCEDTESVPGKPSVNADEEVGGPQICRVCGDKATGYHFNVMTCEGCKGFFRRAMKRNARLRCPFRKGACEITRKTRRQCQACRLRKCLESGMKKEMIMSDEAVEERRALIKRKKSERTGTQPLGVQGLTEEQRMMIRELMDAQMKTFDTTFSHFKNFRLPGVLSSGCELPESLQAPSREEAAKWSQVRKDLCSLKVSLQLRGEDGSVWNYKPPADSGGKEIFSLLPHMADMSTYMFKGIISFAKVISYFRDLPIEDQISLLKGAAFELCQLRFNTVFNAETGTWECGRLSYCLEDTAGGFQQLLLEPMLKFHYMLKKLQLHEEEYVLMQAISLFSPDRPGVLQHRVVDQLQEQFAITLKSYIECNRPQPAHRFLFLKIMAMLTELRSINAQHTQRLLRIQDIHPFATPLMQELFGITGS

[3] = biological target: Peroxisome proliferator-activated receptor gamma (Homo sapiens) (UniProt P37231); conditions: nuclear receptor panel Gal4 luciferase reporter, PPARg, at 10 µM
Sequence of Peroxisome proliferator-activated receptor gamma (Homo sapiens) (P37231 whole entry, looked up, the tested form may be a part): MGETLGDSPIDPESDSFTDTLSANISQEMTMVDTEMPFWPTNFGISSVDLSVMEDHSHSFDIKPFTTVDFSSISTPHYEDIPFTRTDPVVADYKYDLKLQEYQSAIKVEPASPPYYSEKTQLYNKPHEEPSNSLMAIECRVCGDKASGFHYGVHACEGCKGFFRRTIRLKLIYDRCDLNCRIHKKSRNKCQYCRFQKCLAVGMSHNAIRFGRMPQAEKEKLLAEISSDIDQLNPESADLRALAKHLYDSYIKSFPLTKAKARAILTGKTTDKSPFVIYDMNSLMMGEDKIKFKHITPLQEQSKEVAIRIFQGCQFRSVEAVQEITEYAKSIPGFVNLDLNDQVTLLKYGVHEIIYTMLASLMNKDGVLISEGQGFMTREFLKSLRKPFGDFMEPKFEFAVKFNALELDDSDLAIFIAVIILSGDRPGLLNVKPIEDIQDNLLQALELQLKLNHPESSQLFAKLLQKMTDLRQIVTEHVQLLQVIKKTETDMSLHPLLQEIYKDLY

Sequence of COUP transcription factor 2 (Homo sapiens) (P24468 whole entry, looked up, the tested form may be a part): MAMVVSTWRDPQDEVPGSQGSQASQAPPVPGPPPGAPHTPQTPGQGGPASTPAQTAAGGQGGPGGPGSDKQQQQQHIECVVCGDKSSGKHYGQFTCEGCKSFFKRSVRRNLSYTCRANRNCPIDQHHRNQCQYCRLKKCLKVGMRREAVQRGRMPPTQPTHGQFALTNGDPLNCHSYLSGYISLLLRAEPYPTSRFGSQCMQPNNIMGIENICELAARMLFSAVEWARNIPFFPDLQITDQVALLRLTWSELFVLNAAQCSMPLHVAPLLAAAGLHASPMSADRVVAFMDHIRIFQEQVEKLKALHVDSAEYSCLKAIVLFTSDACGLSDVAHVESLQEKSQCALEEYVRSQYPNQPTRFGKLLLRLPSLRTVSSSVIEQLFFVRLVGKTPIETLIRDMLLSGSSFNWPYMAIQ

`O=c1cc(N2CCN(c3cccc(Cl)c3)CC2)[nH]c(=O)n1C1CCCCC1` was tested, and the fold change (AR) was 0.91 (inactive), the fold change [1] was 1.04 (inactive) and the fold change [2] was 1.26. For the same molecule, the fold change [3] was 0.86 (inactive).
